Laboratory results: patent US6863865B2, “Sterilization of pharmaceuticals” (Breath Limited, priority 2000, dated 2005)

Assays:
[1] = cited from earlier work
[2] = HPLC evaluation of impurities after high temperature short time (HTST) sterilization; format: physicochemical; conditions: Fo exposures up to 24
Source text: The formulation to be sterilized was passed through narrow lines of pharmaceutical quality stainless steel in which the sample was rapidly raised to an elevated temperature, maintained at this holding temperature for a period of time, then rapidly returned to ambient temperature. Parameters described in Table 1 are the BMRT (bulk mean retention time), that is the time between the sample being raised above ambient temperature and being returned to ambient temperature, and the FFERT, the time for which the sample is maintained at the elevated temperature. […] The theoretical kill rate, Fo, may be calculated from the FFERT and the elevated temperature. The value of Fo is optimally greater than 10, but values greater than 8 are acceptable for the production of sterile formulations.
This example was carried out to evaluate the effect of HTST on the chemical purity of pharmaceutical preparations by assessing the levels of degradation obtained in samples exposed to varying Fo (effective killing times) times. For the purposes of these experiments, budesonide suspensions were used in the evaluation.
The samples were then evaluated using high performance liquid chromatography to assess the level of impurities present.

[3] = Treatment with high intensity light (Pure-bright process); format: physicochemical; conditions: light at 900 times the intensity of sunlight at sea level; formulations produced as in Example 1
Source text: An alternative method of sterilization of a budesonide suspension is treatment with high intensity light. The so-called “Pure-bright” process allows treatment with light at 900 times the intensity of sunlight at sea level.

**Q.** With CCCC1O[C@@H]2C[C@H]3[C@@H]4CCC5=CC(=O)C=C[C@]5(C)[C@H]4[C@@H](O)C[C@]3(C)[C@]2(C(=O)CO)O1 (stereo partly drawn) [budesonide] as the compound, how does the stability to gamma-irradiation [1] read?
**A.** destroyed

**Q.** What about the “effect on chemical stability” value [2] of the same compound?
**A.** no adverse effect

**Q.** And the “stability of budesonide to high intensity light” value [3]?
**A.** completely destroyed
